In US8703964B2, “Bendamustine cyclopolysaccharide compositions” (Supratek Pharma Inc., priority 2009, dated 2014) one finds concentration and half-life data, which are given here for one molecule.

Data set [1] can be described thus: Pharmacokinetics of bendamustine dosed to rats, composition with SBECD and cetylpyridinium chloride (Example 11). Format: in vivo. The note with it: female, Sprague-Dawley, rat, plasma, iv, i.v. 20 mg/kg, read-out: Concentration of bendamustine in rat plasma, Mean (SEM). As to the method:
Control: 6 mg/mL bendamustine hydrochloride, 10.2 mg/mL of mannitol in 0.9% NaCl; dose of 20 mg/kg
Inventive Composition: 5 mg/g bendamustine hydrochloride, 40% w/w sodium sulfobutyl ether β-cyclodextrin, 0.5% cetylpyridinium chloride, 8.5 mg/g mannitol in water (produced following the procedure of Example 8); dose of 20 mg/kg.
Female Sprague-Dawley rats (250-350 g). The animals were kept three per cage with an air filter cover under light (12 h light/dark cycle, light on at 06 h00) and controlled temperature 22° C.+/−1° C. All manipulations with the animals were performed under a sterilized laminar hood. The animals had ad libitum access to Purina mouse chow and water. The animals were fasted overnight and anesthetized, before dosing. Dosing and Sampling: The inventive bendamustine composition and control were administered intravenously to rats in tail vein. After time intervals of 5, 15, 30, 45 min, 1, 1.5, 2 and 3 hrs post-injection, blood samples were collected. The rats were anesthetized by general inhalation of isoflurane. The blood samples were collected from the jugular vein with heparinized tube and kept on ice. Blood was immediately centrifuged, and plasma was separated. The plasma samples were immediately extracted. Sample Extraction and Analysis: The plasma samples 0.100 mL were transferred to plastic tubes. The samples were extracted with 0.400 mL of 100 mM HCl in acetonitrile while being shaken vigorously for 30 seconds. The samples were centrifuged at 10000 RPM for 5 minutes. The supernatant was separated. The samples were frozen in dry ice and kept at −80° C. until HPLC analysis. 20 microliter aliquots were injected into the HPLC for analysis. The HPLC Conditions: C18 reversed phase column 50×4.6 mm, Symmetry/Shield 3.5 micrometer Column temperature 30° C. Flow rate 1.5 mL/min Injection volume 20 microliters Fluorescence detection at wavelengths: excitation 327 nm, emission 420 nm Mobile phase: Buffer A: 5% acetonitrile 0.1% TFA Buffer B: 90% acetonitrile 0.1% TFA Run time: 10 min The improved pharmacokinetic profiles of bendamustine for tested composition versus the control is shown in Table 1 below.

The nature of data set [2]: Bendamustine chemical stability in plasma, HPLC (Example 31). Format: in vitro ADME. The note with it: heparinized human plasma, 37° C., initially 0.015 mg/mL bendamustine; read-out: T½ in plasma (decomposition half time). The method, then: Heparinized human plasma was spiked, 20 μL into 780 μL of plasma, with the following bendamustine (BM) compositions:
The concentration of bendamustine in plasma after spiking was initially 0.015 mg/mL. The spiked plasma samples were incubated at 37° C. A sample of 50 μL was periodically withdrawn from spiked plasma, and transferred into 200 μL of 100 mM HCl solution in acetonitrile, mixed and centrifuged. 50 μL of the supernatant was diluted 20 times with 95% acetonitrile, then 20 μL of diluted samples were separated on Waters SymmetryShield RP18 3.5 μm column (4.6×50 mm) using gradient of acetonitrile (0.1% TFA) in water (0.1% TFA), flow 1.5 mL/min. Peak detection was performed by means of fluorescence detection with […] at 327 nm and emission at 420 nm. The area of the peak of Bendamustine was used to evaluate the rate of drug decomposition in the first order kinetics model.

Consider `Cn1c(CCCC(=O)O)nc2cc(N(CCCl)CCCl)ccc21` [BM, 4-[5-[bis(2-chloroethyl)amino]-1-methylbenzimidazol-2-yl]butanoic acid], for which the concentration at 0.08 h in data set [1] (0.08 h post injection) was determined as 12300 ng/mL. In data set [1] (0.25 h post injection), the concentration at 0.25 h was 7620 ng/mL. For the same molecule, in data set [1] (0.5 h post injection), the concentration at 0.5 h came out at 3050 ng/mL. Besides, the concentration at 0.75 h in data set [1] (0.75 h post injection) was 966 ng/mL. The concentration at 1 h in data set [1] (1 h post injection) amounted to 414 ng/mL. Also, in data set [1] (1.5 h post injection), the concentration at 1.5 h was 133 ng/mL. In addition, in data set [1] (2 h post injection), the concentration at 2 h is 54 ng/mL. The concentration at 3 h in data set [1] (3 h post injection) was determined as 9 ng/mL. In data set [2], the half-life at 0.015 mg/mL was determined as 123 min.
